Test [1] addresses Human MET (residues 956-1390) (Homo sapiens (Human), UniProt P08581). Put plainly: Human Met kinase assay, HTRF KinEase (Example D-2). The test is classed as biochemical. As to conditions: read-out: c-Met IC50. A digest of the protocol:
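HTRF KinEase assay on MET residues 956-1390 (0.1 ng/well) in buffer with 5 mM MgCl2, 1 mM DTT and 1 mM MnCl2, with biotinylated peptide substrate, ATP at Km, 10 compound concentrations and 3% DMSO final, run 40 min at room temperature. The […] signal was normalized to DMSO and to 1 μM reference compound, and IC50 came from a 4-parameter logistic fit.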

Test [2] deals with Human KDR (residues 790-1356) (Homo sapiens (Human), UniProt P35968). Put plainly: Human KDR kinase assay, HTRF KinEase (Example B-2). The test is classed as biochemical. A digest of the protocol:
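Ten compound concentrations (3% DMSO final) were pre-plated, then KDR (790-1356) with biotinylated peptide in Mg/Mn/DTT buffer was added; ATP at Km (4.0 μM) started a 40 min room-temperature reaction. Detection used Eu-TK antibody and SA-XL665 in EDTA buffer; activity normalized to DMSO and reference inhibitor, IC50 by logistic fit.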
(In TR-FRET formats the signal depends on donor and acceptor labels being close together.)

Test [3] concerns the target Mer (phospho-Mer, MERTK-transfected 293A cells) (Homo sapiens (Human), UniProt Q12866). Put plainly: Mer autophosphorylation ELISA in transient transfected 293A cells (Example H). The test is classed as cell-based. Conditions: cellular activity; Mer autophosphorylation ELISA in transient transfected 293A cells. An outline of the steps:
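MERTK-transfected 293A; 8-pt dose, 1 h, serum-free, 0.3% DMSO. Cold lysis with orthovanadate and protease/phosphatase inhibitors. Phospho-Mer by DuoSet IC ELISA vs phospho-Mer standard. IC50: 4-PL fit; DMSO = 100%, reference inhibitor = 0%.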

For test [4], the target named is Human MER (residues 528-999) (Homo sapiens (Human), UniProt Q12866). Put plainly: Human Mer kinase assay, HTRF KinEase (Example C-2). The test is classed as biochemical. An outline of the steps:
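HTRF KinEase TK assay with MER 528-999 (1 ng/well) in enzymatic buffer plus 5 mM MgCl2 and 1 mM DTT, biotinylated peptide substrate and ATP at Km (40 μM), 3% DMSO final, 60 min at room temperature. Stopped with EDTA detection mix (SA-XL665, TK antibody-Eu3+), read at 665/620 nm after 60 min; IC50 from 10-point 4-parameter fit, normalized to DMSO and 1 μM reference.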

[5] abbreviates: protocol of Example D-2 (other compounds).
[6] abbreviates: protocol of Example B-2 (other compounds).
[7] abbreviates: protocol of Example C-2 (other compounds).

Counter-ions that a name gives are not always drawn. Like-named read-outs stand apart in the source and are kept apart here.

Chain of Human MET (residues 956-1390) (P08581 956-1390): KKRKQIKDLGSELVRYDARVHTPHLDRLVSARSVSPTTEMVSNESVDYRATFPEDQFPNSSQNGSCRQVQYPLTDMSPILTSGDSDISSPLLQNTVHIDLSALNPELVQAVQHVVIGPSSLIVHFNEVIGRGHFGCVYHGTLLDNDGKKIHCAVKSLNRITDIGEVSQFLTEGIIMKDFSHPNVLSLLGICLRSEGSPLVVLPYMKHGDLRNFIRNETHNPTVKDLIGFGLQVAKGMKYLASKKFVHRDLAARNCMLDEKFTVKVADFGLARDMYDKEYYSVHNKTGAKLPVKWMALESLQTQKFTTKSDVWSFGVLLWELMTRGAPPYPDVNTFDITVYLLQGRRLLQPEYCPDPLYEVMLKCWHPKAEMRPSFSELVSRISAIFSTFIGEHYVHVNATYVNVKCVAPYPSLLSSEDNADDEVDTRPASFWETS
Chain of Mer (phospho-Mer, MERTK-transfected 293A cells) (Q12866 21-999): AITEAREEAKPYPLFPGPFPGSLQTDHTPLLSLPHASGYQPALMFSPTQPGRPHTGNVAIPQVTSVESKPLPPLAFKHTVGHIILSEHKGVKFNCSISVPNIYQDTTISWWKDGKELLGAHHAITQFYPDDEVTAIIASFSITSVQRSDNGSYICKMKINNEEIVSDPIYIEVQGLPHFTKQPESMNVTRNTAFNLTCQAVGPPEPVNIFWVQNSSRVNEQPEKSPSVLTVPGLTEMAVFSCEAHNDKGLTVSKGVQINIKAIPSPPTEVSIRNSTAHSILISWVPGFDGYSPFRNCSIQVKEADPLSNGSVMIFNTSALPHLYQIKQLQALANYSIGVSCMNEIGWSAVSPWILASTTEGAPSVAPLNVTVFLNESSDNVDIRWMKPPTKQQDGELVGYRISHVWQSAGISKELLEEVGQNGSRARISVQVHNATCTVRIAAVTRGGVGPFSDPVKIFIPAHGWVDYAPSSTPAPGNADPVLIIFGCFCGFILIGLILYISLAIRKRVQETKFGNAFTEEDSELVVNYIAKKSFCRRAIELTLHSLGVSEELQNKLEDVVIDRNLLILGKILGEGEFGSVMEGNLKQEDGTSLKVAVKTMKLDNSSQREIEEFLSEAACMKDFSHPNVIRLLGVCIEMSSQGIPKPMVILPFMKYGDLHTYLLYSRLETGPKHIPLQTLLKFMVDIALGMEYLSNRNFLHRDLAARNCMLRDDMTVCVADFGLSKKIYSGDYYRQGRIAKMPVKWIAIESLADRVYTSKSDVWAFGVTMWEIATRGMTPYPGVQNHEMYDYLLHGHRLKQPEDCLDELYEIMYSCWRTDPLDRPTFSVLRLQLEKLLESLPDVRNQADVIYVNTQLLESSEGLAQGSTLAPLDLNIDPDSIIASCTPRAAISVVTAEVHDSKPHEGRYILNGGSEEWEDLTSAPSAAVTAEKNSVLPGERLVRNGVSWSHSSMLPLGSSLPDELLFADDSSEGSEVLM
Chain of Human MER (residues 528-999) (Q12866 528-999): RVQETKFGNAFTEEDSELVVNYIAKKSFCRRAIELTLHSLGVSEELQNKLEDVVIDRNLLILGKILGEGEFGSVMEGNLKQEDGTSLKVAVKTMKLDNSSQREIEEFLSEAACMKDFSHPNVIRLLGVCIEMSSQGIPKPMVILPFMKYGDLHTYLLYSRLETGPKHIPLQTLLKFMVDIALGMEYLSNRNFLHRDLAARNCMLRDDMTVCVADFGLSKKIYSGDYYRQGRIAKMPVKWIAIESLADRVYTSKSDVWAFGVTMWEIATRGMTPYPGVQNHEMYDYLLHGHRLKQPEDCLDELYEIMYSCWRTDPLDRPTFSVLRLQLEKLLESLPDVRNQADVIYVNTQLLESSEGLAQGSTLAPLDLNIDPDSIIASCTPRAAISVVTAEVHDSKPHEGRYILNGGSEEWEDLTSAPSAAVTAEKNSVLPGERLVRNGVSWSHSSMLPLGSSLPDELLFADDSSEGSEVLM
Chain of Human KDR (residues 790-1356) (P35968 790-1356): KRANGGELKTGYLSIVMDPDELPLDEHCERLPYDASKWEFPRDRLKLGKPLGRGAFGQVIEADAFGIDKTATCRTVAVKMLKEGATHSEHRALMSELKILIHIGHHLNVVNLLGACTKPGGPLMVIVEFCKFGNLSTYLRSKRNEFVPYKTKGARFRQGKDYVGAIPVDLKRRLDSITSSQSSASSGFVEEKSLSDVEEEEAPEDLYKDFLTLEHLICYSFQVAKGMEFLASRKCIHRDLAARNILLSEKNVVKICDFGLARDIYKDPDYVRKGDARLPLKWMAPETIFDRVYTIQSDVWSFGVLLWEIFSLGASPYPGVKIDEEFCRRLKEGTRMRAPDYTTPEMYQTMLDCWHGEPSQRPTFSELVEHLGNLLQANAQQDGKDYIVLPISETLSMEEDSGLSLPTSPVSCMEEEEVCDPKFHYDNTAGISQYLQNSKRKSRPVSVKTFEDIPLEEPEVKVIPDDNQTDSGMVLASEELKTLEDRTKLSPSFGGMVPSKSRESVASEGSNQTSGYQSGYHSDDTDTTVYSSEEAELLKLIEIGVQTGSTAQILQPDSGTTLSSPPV

Broadly, the IC50 is the point on the concentration scale where inhibition reaches its midpoint. With `Cc1ncc(C(=O)Nc2ccc(Oc3ccnc4cc(C(F)(F)F)cnc34)c(F)c2)c(O)c1-c1ccc(F)cc1` [Compound 151, 5-(4-Fluorophenyl)-N-[3-fluoro-4-[[7-(trifluoromethyl)-1,5-naphthyridin-4-yl]oxy]phenyl]-4-hydroxy-6-methylpyridine-3-carboxamide], the IC50 in test [1] (setting [5]) is below 100 nM; in test [2] (setting [6]) it was above 300 nM; in test [3], below 100 nM; in test [4] (setting [7]), below 100 nM.
As to `Cc1nc2c(Oc3ccc(NC(=O)c4cnc(C)c(-c5ccc(F)cc5)c4O)cc3)ccnc2cc1-c1cccnc1` [Compound 616, 5-(4-Fluorophenyl)-4-hydroxy-6-methyl-N-[4-[(6-methyl-7-pyridin-3-yl-1,5-naphthyridin-4-yl)oxy]phenyl]pyridine-3-carboxamide hydrochloride], the IC50 in test [1] (protocol of Example D-2) was below 100 nM; in test [2] (protocol of Example B-2) it was above 300 nM; in test [3] it was 100 to 300 nM; in test [4] (protocol of Example C-2), below 100 nM.
Take `Cc1cc2c(Oc3ccc(NC(=O)c4cnc(C)c(-c5ccc(F)cc5)c4O)cc3F)ccnc2cn1` [Compound 645, N-[3-fluoro-4-[(6-methyl-1,7-naphthyridin-4-yl)oxy]phenyl]-5-(4-fluorophenyl)-4-hydroxy-6-methylpyridine-3-carboxamide]: the half-inhibitory concentration (IC50) in test [1] (protocol of Example D-2), in test [2] (protocol of Example B-2), in test [3] and in test [4] (protocol of Example C-2) was below 100 nM in each case.
`Cc1nc2c(Oc3ccc(NC(=O)c4cn(C(C)C)c(C)c(-c5ccc(F)cc5)c4=O)cc3)ccnc2cc1-c1cccnc1` [Compound 613, 5-(4-Fluorophenyl)-6-methyl-N-[4-[(6-methyl-7-pyridin-3-yl-1,5-naphthyridin-4-yl)oxy]phenyl]-4-oxo-1-propan-2-ylpyridine-3-carboxamide hydrochloride]: the IC50 in test [1] (protocol of Example D-2) is below 100 nM; in test [2] (protocol of Example B-2), above 300 nM; in test [3], below 100 nM; in test [4] (protocol of Example C-2), below 100 nM.
In the case of `COc1cc2nccc(Oc3ccc(NC(=O)c4cn(-c5cccnc5)cc(-c5ccc(F)cc5)c4=O)cc3F)c2nc1OC` [Compound 125, N-[4-[(6,7-Dimethoxy-1,5-naphthyridin-4-yl)oxy]-3-fluorophenyl]-5-(4-fluorophenyl)-4-oxo-1-pyridin-3-ylpyridine-3-carboxamide], the IC50 in test [1] (setting [5]) was below 100 nM; in test [2] (setting [6]) it was above 300 nM; in test [3], below 100 nM; in test [4] (setting [7]), below 100 nM.
In the case of `COc1cc2ncnc(Oc3ccc(NC(=O)c4cn(-c5cnn(C)c5)cc(-c5ccc(F)cc5)c4=O)cc3F)c2nc1OC` [Compound 637, N-[4-(6,7-dimethoxyprido[3,2-d]pyrimidin-4-yl)oxy-3-fluorophenyl]-5-(4-fluorophenyl)-1-(1-methylpyrazol-4-yl)-4-oxopyridine-3-carboxamide], the IC50 in test [1] (protocol of Example D-2) is below 100 nM; in test [2] (protocol of Example B-2) it was above 300 nM; in test [3] it was below 100 nM; in test [4] (protocol of Example C-2), below 100 nM.
On to `COc1nc2c(Oc3ccc(NC(=O)c4cncc(-c5ccc(F)cc5)c4O)cc3F)ccnc2cc1Br` [Compound 129, N-[4-[(7-Bromo-6-methoxy-1,5-naphthyridin-4-yl)oxy]-3-fluorophenyl]-5-(4-fluorophenyl)-4-hydroxypyridine-3-carboxamide], for which the IC50 in test [1] (setting [5]), in test [2] (setting [6]), in test [3] and in test [4] (setting [7]) was below 100 nM in each case.
Regarding `CNC(=O)c1cnc2c(Oc3ccc(NC(=O)c4cnc(C)c(-c5ccc(F)cc5)c4O)cc3F)ccnc2c1` [Compound 578, 8-[2-Fluoro-4-[[5-(4-fluorophenyl)-4-hydroxy-6-methylpyridine-3-carbonyl]amino]phenoxy]-N-methyl-1,5-naphthyridine-3-carboxamide], the IC50 in test [1] (protocol of Example D-2) is below 100 nM; in test [2] (protocol of Example B-2), 100 to 300 nM; in test [3], above 300 nM; in test [4] (protocol of Example C-2) it was below 100 nM.
For `CNc1c(-c2ccc(F)cc2)c(=O)c(C(=O)Nc2ccc(Oc3ccnc4cc(OC)cnc34)c(F)c2)cn1C` [Compound 585, N-[3-Fluoro-4-[(7-methoxy-1,5-naphthyridin-4-yl)oxy]phenyl]-5-(4-fluorophenyl)-1-methyl-6-(methylamino)-4-oxopyridine-3-carboxamide], the IC50 in test [1] (protocol of Example D-2) is below 100 nM; in test [2] (protocol of Example B-2), above 300 nM; in test [3], below 100 nM; in test [4] (protocol of Example C-2), below 100 nM.
As to `Cc1ncc(C(=O)Nc2ccc(Oc3ccnc4cnccc34)c(F)c2)c(O)c1-c1ccc(F)cc1` [Compound 642, N-[3-fluoro-4-(1,7-naphthyridin-4-yloxy)phenyl]-5-(4-fluorophenyl)-4-hydroxy-6-methylpyridine-3-carboxamide], the IC50 in test [1] (protocol of Example D-2), in test [2] (protocol of Example B-2), in test [3] and in test [4] (protocol of Example C-2) was below 100 nM each time.
On to `COc1cc2c(Oc3ccc(NC(=O)c4cn(C5CC5)c(C)c(-c5ccc(F)cc5)c4=O)cc3F)ccnc2cn1` [Compound 640, 1-cyclopropyl-N-[3-fluoro-4-[(6-methoxy-1,7-naphthyridin-4-yl)oxy]phenyl]-5-(4-fluorophenyl)-6-methyl-4-oxopyridine-3-carboxamide], for which the IC50 was below 100 nM in test [1] (protocol of Example D-2), above 300 nM in test [2] (protocol of Example B-2), below 100 nM in test [3] and below 100 nM in test [4] (protocol of Example C-2).
Turning to `COc1cc2c(Oc3ccc(NC(=O)c4cnc(C)c(-c5ccc(F)cc5)c4O)cc3)ccnc2cn1` [Compound 644, 5-(4-fluorophenyl)-4-hydroxy-N-[4-[(6-methoxy-1,7-naphthyridin-4-yl)oxy]phenyl]-6-methylpyridine-3-carboxamide], the IC50 in test [1] (protocol of Example D-2) was below 100 nM; in test [2] (protocol of Example B-2), 100 to 300 nM; in test [3], below 100 nM; in test [4] (protocol of Example C-2) it was below 100 nM.
Take `COc1cc2nccc(Oc3ccc(NC(=O)c4cn(C(C)C)c(C)c(-c5ccc(F)cc5)c4=O)cc3F)c2nc1NS(C)(=O)=O` [Compound 581, N-[3-Fluoro-4-[[6-(methanesulfonamido)-7-methoxy-1,5-naphthyridin-4-yl]oxy]phenyl]-5-(4-fluorophenyl)-6-methyl-4-oxo-1-propan-2-ylpyridine-3-carboxamide]: the IC50 in test [1] (protocol of Example D-2), in test [2] (protocol of Example B-2), in test [3] and in test [4] (protocol of Example C-2) was below 100 nM each time.
As for `COc1cc2nccc(Oc3ccc(NC(=O)c4cn(C(C)(C)C)c(C)c(-c5ccc(F)cc5)c4=O)cc3F)c2nc1OC` [Compound 139, 1-tert-Butyl-N-[4-[(6,7-dimethoxy-1,5-naphthyridin-4-yl)oxy]-3-fluorophenyl]-5-(4-fluorophenyl)-6-methyl-4-oxopyridine-3-carboxamide], the IC50 in test [1] (setting [5]) was below 100 nM; in test [2] (setting [6]), above 300 nM; in test [3], below 100 nM; in test [4] (setting [7]), below 100 nM.
On to `COc1cc2nccc(Oc3ccc(NC(=O)c4cn(CCN5CCOCC5)cc(-c5ccc(F)cc5)c4=O)cc3F)c2nc1OC` [Compound 157, N-[4-[(6,7-Dimethoxy-1,5-naphthyridin-4-yl)oxy]-3-fluorophenyl]-5-(4-fluorophenyl)-1-(2-morpholin-4-ylethyl)-4-oxopyridine-3-carboxamide], for which the IC50 in test [1] (setting [5]) is below 100 nM; in test [2] (setting [6]), above 300 nM; in test [3], below 100 nM; in test [4] (setting [7]), below 100 nM.
In the case of `CCn1nc(C(=O)Nc2ccc(Oc3ccnc4cc(OC)c(OC)nc34)c(F)c2)c(=O)c(-c2ccc(F)cc2)c1C` [Compound 568, N-[4-[(6,7-Dimethoxy-1,5-naphthyridin-4-yl)oxy]-3-fluorophenyl]-1-ethyl-5-(4-fluorophenyl)-6-methyl-4-oxopyridazine-3-carboxamide], the IC50 in test [1] (protocol of Example D-2), in test [2] (protocol of Example B-2), in test [3] and in test [4] (protocol of Example C-2) was below 100 nM throughout.
On to `COc1cc2nccc(Oc3ccc(NC(=O)c4cnc(C)c(-c5ccc(F)cc5)c4O)cc3F)c2nc1NS(C)(=O)=O` [Compound 584, N-[3-Fluoro-4-[[6-(methanesulfonamido)-7-methoxy-1,5-naphthyridin-4-yl]oxy]phenyl]-5-(4-fluorophenyl)-4-hydroxy-6-methylpyridine-3-carboxamide], for which the IC50 in test [1] (protocol of Example D-2) was below 100 nM; in test [2] (protocol of Example B-2) it was below 100 nM; in test [3] it was 100 to 300 nM; in test [4] (protocol of Example C-2), below 100 nM.
On to `COc1cc2nccc(Oc3ccc(NC(=O)c4cn(C(C)C)c(C)c(-c5ccc(F)cc5)c4=O)cc3F)c2nc1O` [Compound 580, N-[3-Fluoro-4-[(6-hydroxy-7-methoxy-1,5-naphthyridin-4-yl)oxy]phenyl]-5-(4-fluorophenyl)-6-methyl-4-oxo-1-propan-2-ylpyridine-3-carboxamide], for which the IC50 in test [1] (protocol of Example D-2) is below 100 nM; in test [2] (protocol of Example B-2), above 300 nM; in test [3] it was below 100 nM; in test [4] (protocol of Example C-2) it was below 100 nM.

(Values after patent US12371428B2 (Exelixis, Inc., priority 2019, dated 2025).)
